Active and inactive are the calls of the source. The calls are words filed in the database; no cut-off is given here.
Key:
Integrin alpha-V/beta-6 [1] = target: T1, Integrin alpha-V/beta-6 (Homo sapiens, UniProt P06756+P18564); test: Displacement of fluorescein labeled GRGDLGRL from human Integrin alphaVbeta6 preincubated for 15 mins followed by fluorescein labeled GRGDLGRL addition and measured after 1 hr by fluorescence polarization assay; assay type: protein-complex assay
Integrin alpha-V/beta-1 = Integrin alpha-V/beta-1 (Homo sapiens, UniProt P05556+P06756); test: Displacement of fluorescein labeled ACRGDGWC from human Integrin alphaVbeta1 preincubated for 15 mins followed by fluorescein labeled ACRGDGWC addition and measured after 1 hr by fluorescence polarization assay; assay type: protein-complex assay
Integrin alpha-V/beta-8 = Integrin alpha-V/beta-8 (Homo sapiens, UniProt P06756+P26012); test: Displacement of fluorescein labeled GRGDLGRL from human Integrin alphaVbeta8 preincubated for 15 mins followed by fluorescein labeled GRGDLGRL addition and measured after 1 hr by fluorescence polarization assay; assay type: protein-complex assay
[2] = Octanol/water partition coefficient, logD of the compound; assay type: physicochemical
[3] = Clearance in Sprague-Dawley rat at 1 mg/kg, iv measured upto 24 hrs by LC/MS-MS analysis; assay type: ADME, organism-based; conditions: in vivo
[4] = Volume of distribution at steady state in Sprague-Dawley rat at 1 mg/kg, iv measured upto 24 hrs by LC/MS-MS analysis; assay type: ADME, organism-based; conditions: in vivo, read-out: Vdss
[5] = Half-life in Sprague-Dawley rat at 1 mg/kg, iv measured upto 24 hrs by LC/MS-MS analysis; assay type: ADME, organism-based; conditions: in vivo
[6] = Oral bioavailability in Sprague-Dawley rat at 10 mg/kg measured upto 24 hrs by LC/MS-MS analysis; assay type: ADME, organism-based; conditions: in vivo
[7] = Clearance in C57BL/6 mouse at 1 mg/kg, iv measured upto 24 hrs by LC/MS-MS analysis; assay type: ADME, organism-based; conditions: in vivo
[8] = Volume of distribution at steady state in C57BL/6 mouse at 1 mg/kg, iv measured upto 24 hrs by LC/MS-MS analysis; assay type: ADME, organism-based; conditions: in vivo, read-out: Vdss
[9] = Half-life in C57BL/6 mouse at 1 mg/kg, iv measured upto 24 hrs by LC/MS-MS analysis; assay type: ADME, organism-based; conditions: in vivo
[10] = AUCinfinity in C57BL/6 mouse at 1 mg/kg, iv measured upto 24 hrs by LC/MS-MS analysis; assay type: ADME, organism-based; conditions: in vivo
[11] = AUCinfinity in Sprague-Dawley rat at 1 mg/kg, iv measured upto 24 hrs by LC/MS-MS analysis; assay type: ADME, organism-based; conditions: in vivo
[12] = Volume of distribution at steady state in Beagle dog at 1 mg/kg, iv measured upto 24 hrs by LC/MS-MS analysis; assay type: ADME, organism-based, Canis lupus familiaris; conditions: in vivo, read-out: Vdss
[13] = Half-life in Beagle dog at 1 mg/kg, iv measured upto 24 hrs by LC/MS-MS analysis; assay type: ADME, organism-based, Canis lupus familiaris; conditions: in vivo
[14] = AUCinfinity in Beagle dog at 1 mg/kg, iv measured upto 24 hrs by LC/MS-MS analysis; assay type: ADME, organism-based, Canis lupus familiaris; conditions: in vivo
[15] = Clearance in cynomolgus monkey at 1 mg/kg, iv measured upto 24 hrs by LC/MS-MS analysis; assay type: ADME, organism-based, Macaca fascicularis; conditions: in vivo
[16] = Volume of distribution at steady state in cynomolgus monkey at 1 mg/kg, iv measured upto 24 hrs by LC/MS-MS analysis; assay type: ADME, organism-based, Macaca fascicularis; conditions: in vivo, read-out: Vdss
[17] = Half-life in cynomolgus monkey at 1 mg/kg, iv measured upto 24 hrs by LC/MS-MS analysis; assay type: ADME, organism-based, Macaca fascicularis; conditions: in vivo
[18] = AUCinfinity in cynomolgus monkey at 1 mg/kg, iv measured upto 24 hrs by LC/MS-MS analysis; assay type: ADME, organism-based, Macaca fascicularis; conditions: in vivo
[19] = Cmax in C57BL/6 mouse at 30 mg/kg, po measured upto 24 hrs by LC/MS-MS analysis; assay type: ADME, organism-based; conditions: in vivo
[20] = Tmax in C57BL/6 mouse at 30 mg/kg, po measured upto 24 hrs by LC/MS-MS analysis; assay type: ADME, organism-based; conditions: in vivo
[21] = Half-life in C57BL/6 mouse at 30 mg/kg, po measured upto 24 hrs by LC/MS-MS analysis; assay type: ADME, organism-based; conditions: in vivo
[22] = AUCinfinity in C57BL/6 mouse at 30 mg/kg, po measured upto 24 hrs by LC/MS-MS analysis; assay type: ADME, organism-based; conditions: in vivo
[23] = Oral bioavailability in C57BL/6 mouse at 30 mg/kg measured upto 24 hrs by LC/MS-MS analysis; assay type: ADME, organism-based; conditions: in vivo
[24] = Fraction of compound absorbed into portal vein (FaFg) in C57BL/6 mouse at 30 mg/kg, po measured upto 24 hrs by LC/MS-MS analysis; assay type: ADME, organism-based; conditions: in vivo
[25] = Cmax in Sprague-Dawley rat at 30 mg/kg, po measured upto 24 hrs by LC/MS-MS analysis; assay type: ADME, organism-based; conditions: in vivo
[26] = Tmax in Sprague-Dawley rat at 30 mg/kg, po measured upto 24 hrs by LC/MS-MS analysis; assay type: ADME, organism-based; conditions: in vivo
[27] = Half-life in Sprague-Dawley rat at 30 mg/kg, po measured upto 24 hrs by LC/MS-MS analysis; assay type: ADME, organism-based; conditions: in vivo
[28] = AUCinfinity in Sprague-Dawley rat at 30 mg/kg, po measured upto 24 hrs by LC/MS-MS analysis; assay type: ADME, organism-based; conditions: in vivo
[29] = Oral bioavailability in Sprague-Dawley rat at 30 mg/kg measured upto 24 hrs by LC/MS-MS analysis; assay type: ADME, organism-based; conditions: in vivo
[30] = Fraction of compound absorbed into portal vein (FaFg) in Sprague-Dawley rat at 30 mg/kg, po measured upto 24 hrs by LC/MS-MS analysis; assay type: ADME, organism-based; conditions: in vivo
[31] = Cmax in cynomolgus […] at 5 mg/kg, po measured upto 24 hrs by LC/MS-MS analysis; assay type: ADME, organism-based, Macaca fascicularis; conditions: in vivo
[32] = Tmax in cynomolgus […] at 5 mg/kg, po measured upto 24 hrs by LC/MS-MS analysis; assay type: ADME, organism-based, Macaca fascicularis; conditions: in vivo
[33] = Half-life in cynomolgus […] at 5 mg/kg, po measured upto 24 hrs by LC/MS-MS analysis; assay type: ADME, organism-based, Macaca fascicularis; conditions: in vivo
[34] = AUCinfinity in cynomolgus […] at 5 mg/kg, po measured upto 24 hrs by LC/MS-MS analysis; assay type: ADME, organism-based, Macaca fascicularis; conditions: in vivo
[35] = Oral bioavailability in cynomolgus […] at 5 mg/kg measured upto 24 hrs by LC/MS-MS analysis; assay type: ADME, organism-based, Macaca fascicularis; conditions: in vivo
[36] = Fraction of compound absorbed into portal vein (FaFg) in cynomolgus monkey at 30 mg/kg, po measured upto 24 hrs by LC/MS-MS analysis; assay type: ADME, organism-based, Macaca fascicularis; conditions: in vivo
Integrin alpha-V/beta-6 [37] = target: T1, Integrin alpha-V/beta-6; test: Binding affinity to human Integrin alphaVbeta6 overexpressed in HEK293 cells incubated for 15 mins in presence of human serum by flow cytometry assay; assay type: cell-based
Integrin alpha-V/beta-6 [38] = target: T1, Integrin alpha-V/beta-6; test: Inhibition of Integrin alphaVbeta6 (unknown origin) mediated TGF-beta1 activation expressed in HEK293 cells cocultured with MLEC cells expressing luciferase reporter; assay type: cell-based
Integrin alpha-V/beta-6 [39] = target: T1, Integrin alpha-V/beta-6; test: Inhibition of Integrin alphaVbeta6 (unknown origin) mediated TGF-beta1 activation expressed in primary epithelial cells cocultured with idiopathic pulmonary fibroblast cells assessed as downregulation of COL1A1 mRNA expression measured after 72 hrs by qPCR assay; assay type: cell-based, Epithelial cell
Integrin alpha-V/beta-6 [40] = target: T1, Integrin alpha-V/beta-6; test: Inhibition of Integrin alphaVbeta6 (unknown origin) mediated TGF-beta1 activation expressed in primary epithelial cells cocultured with idiopathic pulmonary fibroblast cells assessed as downregulation of COL3A1 mRNA expression measured after 72 hrs by qPCR assay; assay type: cell-based, Epithelial cell
Integrin alpha-V/beta-6 [41] = target: T1, Integrin alpha-V/beta-6; test: Inhibition of Integrin alphaVbeta6 (unknown origin) mediated TGF-beta1 activation expressed in primary epithelial cells cocultured with idiopathic pulmonary fibroblast cells assessed as downregulation of FN mRNA expression measured after 72 hrs by qPCR assay; assay type: cell-based, Epithelial cell
Mus musculus [42] = test: Antifibrotic activity against BLM-induced C57BL/6J mouse acute lung fibrosis model assessed as reduction in pSMAD2:total protein ratio at 0.1 to 100 mg/kg, po administered twice daily for 3 days; assay type: functional, organism-based; conditions: dose 0.1-100 mg/kg, time 3.0 day
Mus musculus [43] = test: Antifibrotic activity against BLM-induced po dosed C57BL/6J mouse acute lung fibrosis model assessed as reduction in pSMAD2 level administered twice daily for 3 days; assay type: functional, organism-based; conditions: 72 h
Mus musculus [44] = test: Antifibrotic activity against BLM-induced C57BL/6J mouse acute lung fibrosis model assessed as reduction in modified ashcroft score at 1 to 10 mg/kg, po administered twice daily for 14 days; assay type: functional; set-up: scale not given: the % may be the effect or the level left; conditions: dose 1-10 mg/kg, time 14 day
Mus musculus [45] = test: Antifibrotic activity against BLM-induced C57BL/6J mouse acute lung fibrosis model assessed as reduction in picrosirius red positive area at 1 to 10 mg/kg, po administered twice daily for 14 days; assay type: functional, organism-based; conditions: dose 1-10 mg/kg, time 14.0 day
Mus musculus [46] = test: Antifibrotic activity against BLM-induced C57BL/6J mouse acute lung fibrosis model assessed as reduction in total collagen deposition at 3 mg/kg, po administered twice daily for 14 days; assay type: functional, organism-based; conditions: time 14.0 day
Mus musculus [47] = test: Antifibrotic activity against BLM-induced C57BL/6J mouse acute lung fibrosis model assessed as reduction in collagen fiber density at 3 mg/kg, po administered twice daily for 14 days; assay type: functional, organism-based; conditions: time 14.0 day
Mus musculus [48] = test: Antifibrotic activity against BLM-induced C57BL/6J mouse acute lung fibrosis model assessed as reduction in collagen structure index at 3 mg/kg, po administered twice daily for 14 days; assay type: functional, organism-based; conditions: time 14.0 day
Mus musculus [49] = test: Antifibrotic activity against BLM-induced po dosed C57BL/6J mouse acute lung fibrosis model assessed as reduction in modified ashcroft score administered twice daily for 14 days; assay type: functional; set-up: scale not given: the % may be the effect or the level left; conditions: time 14 day

T1 sequence (P06756 31-889 limits assumed): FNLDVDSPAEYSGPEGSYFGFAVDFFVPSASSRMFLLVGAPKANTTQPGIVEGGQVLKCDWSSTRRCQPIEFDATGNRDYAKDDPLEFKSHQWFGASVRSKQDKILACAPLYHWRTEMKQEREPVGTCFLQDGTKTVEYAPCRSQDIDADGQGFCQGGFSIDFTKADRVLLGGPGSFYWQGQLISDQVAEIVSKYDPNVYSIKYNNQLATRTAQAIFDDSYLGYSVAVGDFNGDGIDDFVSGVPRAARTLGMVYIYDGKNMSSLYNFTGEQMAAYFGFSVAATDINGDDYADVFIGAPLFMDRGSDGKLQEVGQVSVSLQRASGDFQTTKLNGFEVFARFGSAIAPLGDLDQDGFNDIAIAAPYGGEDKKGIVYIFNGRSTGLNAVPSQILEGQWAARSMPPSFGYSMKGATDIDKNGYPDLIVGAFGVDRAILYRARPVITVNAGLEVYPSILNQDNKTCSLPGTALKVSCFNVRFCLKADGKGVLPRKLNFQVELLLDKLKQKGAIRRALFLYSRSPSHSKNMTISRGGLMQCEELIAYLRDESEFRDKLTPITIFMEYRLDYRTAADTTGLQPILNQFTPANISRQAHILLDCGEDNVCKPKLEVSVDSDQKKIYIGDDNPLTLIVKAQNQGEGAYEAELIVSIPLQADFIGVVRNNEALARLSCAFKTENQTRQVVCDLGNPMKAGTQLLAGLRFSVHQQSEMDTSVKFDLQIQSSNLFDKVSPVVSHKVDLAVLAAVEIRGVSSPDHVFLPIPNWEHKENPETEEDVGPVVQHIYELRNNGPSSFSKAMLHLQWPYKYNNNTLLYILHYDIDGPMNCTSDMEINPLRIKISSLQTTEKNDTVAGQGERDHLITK
T1 sequence (P06756 891-1048 limits assumed): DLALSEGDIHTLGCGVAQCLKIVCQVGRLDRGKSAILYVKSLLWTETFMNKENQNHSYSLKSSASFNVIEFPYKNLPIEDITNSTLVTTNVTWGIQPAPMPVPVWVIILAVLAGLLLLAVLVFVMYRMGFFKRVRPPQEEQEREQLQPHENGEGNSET
T1 sequence (P18564 22-788 limits assumed): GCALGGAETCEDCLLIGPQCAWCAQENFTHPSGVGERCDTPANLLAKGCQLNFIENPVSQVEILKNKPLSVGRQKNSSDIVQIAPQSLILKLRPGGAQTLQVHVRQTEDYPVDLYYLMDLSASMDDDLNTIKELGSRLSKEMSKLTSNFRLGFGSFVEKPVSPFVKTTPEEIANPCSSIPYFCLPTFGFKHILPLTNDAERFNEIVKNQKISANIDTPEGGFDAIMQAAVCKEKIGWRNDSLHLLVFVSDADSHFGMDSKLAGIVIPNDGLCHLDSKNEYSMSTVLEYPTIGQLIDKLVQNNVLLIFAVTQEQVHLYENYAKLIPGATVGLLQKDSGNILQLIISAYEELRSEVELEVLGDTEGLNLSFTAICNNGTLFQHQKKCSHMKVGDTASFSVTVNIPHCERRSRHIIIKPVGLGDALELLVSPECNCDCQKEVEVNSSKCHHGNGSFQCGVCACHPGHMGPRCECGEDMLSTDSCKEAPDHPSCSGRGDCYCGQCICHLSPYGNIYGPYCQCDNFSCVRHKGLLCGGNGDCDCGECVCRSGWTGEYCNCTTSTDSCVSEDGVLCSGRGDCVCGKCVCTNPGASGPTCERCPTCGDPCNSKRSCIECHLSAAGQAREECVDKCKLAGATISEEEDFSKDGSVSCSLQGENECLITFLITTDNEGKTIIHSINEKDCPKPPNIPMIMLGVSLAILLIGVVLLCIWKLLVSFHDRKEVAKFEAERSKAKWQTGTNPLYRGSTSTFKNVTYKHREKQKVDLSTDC
Sequence of Integrin alpha-V/beta-8 (P06756 31-889 limits assumed): as the sequence (P06756 31-889 limits assumed) above
Sequence of Integrin alpha-V/beta-8 (P06756 891-1048 limits assumed): as the sequence (P06756 891-1048 limits assumed) above
Sequence of Integrin alpha-V/beta-8 (P26012 43-769 limits assumed): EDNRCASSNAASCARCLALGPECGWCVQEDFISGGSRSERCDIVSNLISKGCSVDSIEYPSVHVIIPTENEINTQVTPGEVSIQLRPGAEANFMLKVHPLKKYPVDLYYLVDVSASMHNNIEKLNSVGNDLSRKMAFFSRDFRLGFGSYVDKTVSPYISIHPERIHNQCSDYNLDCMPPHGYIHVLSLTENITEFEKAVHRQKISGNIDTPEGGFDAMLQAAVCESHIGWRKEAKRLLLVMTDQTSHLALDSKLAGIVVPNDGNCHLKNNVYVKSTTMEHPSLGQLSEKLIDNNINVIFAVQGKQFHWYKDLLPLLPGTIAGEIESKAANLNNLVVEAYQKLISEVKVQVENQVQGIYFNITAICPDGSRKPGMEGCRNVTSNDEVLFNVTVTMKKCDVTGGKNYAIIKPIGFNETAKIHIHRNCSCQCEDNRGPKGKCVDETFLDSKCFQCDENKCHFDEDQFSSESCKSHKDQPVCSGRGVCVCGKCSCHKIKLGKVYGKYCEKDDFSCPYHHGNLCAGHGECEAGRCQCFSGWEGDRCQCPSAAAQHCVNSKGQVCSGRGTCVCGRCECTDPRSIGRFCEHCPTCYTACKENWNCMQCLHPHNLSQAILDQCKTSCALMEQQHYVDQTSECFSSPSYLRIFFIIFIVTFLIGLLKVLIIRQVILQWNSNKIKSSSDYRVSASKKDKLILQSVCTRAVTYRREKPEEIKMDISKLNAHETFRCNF
Sequence of Integrin alpha-V/beta-1 (P05556 21-798 limits assumed): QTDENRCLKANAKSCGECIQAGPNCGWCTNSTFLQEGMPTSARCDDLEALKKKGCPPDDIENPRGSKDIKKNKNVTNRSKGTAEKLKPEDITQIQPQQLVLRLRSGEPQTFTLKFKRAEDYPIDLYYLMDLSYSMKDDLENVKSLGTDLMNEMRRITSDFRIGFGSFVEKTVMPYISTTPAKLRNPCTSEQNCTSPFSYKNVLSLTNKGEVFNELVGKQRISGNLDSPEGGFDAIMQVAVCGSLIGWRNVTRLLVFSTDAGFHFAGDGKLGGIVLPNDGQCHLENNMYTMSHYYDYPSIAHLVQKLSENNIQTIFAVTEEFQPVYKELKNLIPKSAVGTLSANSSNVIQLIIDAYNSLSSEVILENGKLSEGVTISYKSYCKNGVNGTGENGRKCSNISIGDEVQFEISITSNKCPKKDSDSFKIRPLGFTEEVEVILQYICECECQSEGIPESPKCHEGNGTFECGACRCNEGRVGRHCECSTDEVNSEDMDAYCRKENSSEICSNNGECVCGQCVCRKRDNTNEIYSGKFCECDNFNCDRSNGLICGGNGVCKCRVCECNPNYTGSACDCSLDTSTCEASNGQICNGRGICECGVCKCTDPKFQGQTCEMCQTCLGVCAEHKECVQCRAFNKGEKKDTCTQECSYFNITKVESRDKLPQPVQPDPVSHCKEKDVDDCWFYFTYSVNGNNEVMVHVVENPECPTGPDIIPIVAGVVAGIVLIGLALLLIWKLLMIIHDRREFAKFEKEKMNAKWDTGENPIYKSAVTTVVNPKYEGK
Sequence of Integrin alpha-V/beta-1 (P06756 31-889 limits assumed): as the sequence (P06756 31-889 limits assumed) above
Sequence of Integrin alpha-V/beta-1 (P06756 891-1048 limits assumed): as the sequence (P06756 891-1048 limits assumed) above

Work on `O=C(O)[C@H](c1cc(F)ccc1[C@@H]1CCC2(CC2)CO1)N1CC[C@@H](OCCCCc2ccc3c(n2)NCCC3)C1` yielded an IC50 (Integrin alpha-V/beta-6 [1]) of 1.1 nM, an IC50 (Integrin alpha-V/beta-1) of 490 nM and an IC50 (Integrin alpha-V/beta-8) of 330 nM. The logD [2] was 2.2, the clearance [3] was 28 mL/min/kg and the Vd [4] was 3.1 L/kg. The half-life [5] was 1.9 h, the bioavailability [6] was 22% and the clearance [7] was 18 mL/min/kg. For the same molecule, the Vd [8] was 2.07 L/kg, the half-life [9] was 1.9 h and the AUC(0-inf) [10] was 940 ng·h/mL. The AUC(0-inf) [11] was 610 ng·h/mL, the Vd [12] was 1.84 L/kg and the half-life [13] was 4.9 h. For the same molecule, the AUC [14] was 2970 ng·h/mL, the clearance [15] was 10.5 mL/min/kg and the Vd [16] was 2.45 L/kg. The half-life [17] was 4.9 h, the AUC(0-inf) [18] was 1590 ng·h/mL and the Cmax [19] was 7600 ng/mL. For the same molecule, the Tmax [20] was 0.25 h, the t1/2 [21] was 2.6 h and the AUC(0-inf) [22] was 19000 ng·h/mL. The bioavailability [23] was 66%, the FaFg [24] was 83% and the Cmax [25] was 14000 ng/mL. It also gave a Tmax [26] of 0.25 h, a t1/2 [27] of 1.8 h and an AUC(0-inf) [28] of 14000 ng·h/mL. It also gave a bioavailability [29] of 74%, a FaFg [30] of 123% and a Cmax [31] of 540 ng/mL. The Tmax [32] was 1 h, the t1/2 [33] was 4.8 h and the AUC(0-inf) [34] was 1600 ng·h/mL. It also gave a bioavailability [35] of 16%, a FaFg [36] of 21% and an IC50 (Integrin alpha-V/beta-6 [37]) of 9.2 nM. It also gave an IC50 (Integrin alpha-V/beta-6 [38]) of 2.63 nM, an IC50 (Integrin alpha-V/beta-6 [39]) of 1.8 nM and an IC50 (Integrin alpha-V/beta-6 [40]) of 12.8 nM. For the same molecule, the IC50 (Integrin alpha-V/beta-6 [41]) was 20.3 nM, the Activity (Mus musculus [42]) was “Active; Showed Significant Activity At 10 To 30 Mg/Kg” and the IC50 (Mus musculus [43]) was 8.3 nM. For the same molecule, the Activity (Mus musculus [44]) was 33%, the Activity (Mus musculus [45]) was “Active; No Statistical Significant Activity” and the Activity (Mus musculus [46]) was “Active”. For the same molecule, the Activity (Mus musculus [47]) was “Active” and the Activity (Mus musculus [48]) was “Active”.
Molecule `Cc1cccc(-c2[nH]c(C(C)(C)C)nc2-c2ccc3nccnc3c2)n1` has an Activity (Mus musculus [49]) of 37%.
